Measurements reported in patent publication US5354862A, “Preparation and the use of halopropargylated cyclic quaternary ammonium compounds as antimicrobial agents” (Rohm and Haas Company, priority 1993, dated 1994).
Like-named read-outs stand apart in the source and are kept apart here.

Legend:
Assay in all cases: Broth two-fold serial dilution MIC test
Pseudomonas aeruginosa = format: cell-based, Pseudomonas aeruginosa (ATCC 15442); conditions: Psae
Excerpt: (§1) A minimum inhibitory concentration (MIC) value is obtained using a broth, two-fold serial dilution test performed as follows: A stock solution or dispersion of the test compound, typically at a concentration of 1%, is made in a 5:3:2 solvent solution of acetone. methanol, and water. A volume of the stock solution is dispensed into culture media to give an initial starting test concentration of 500 ppm compound.
(§2) When the test is ready to be done, each vessel in the dilution series, except the first vessel, contains an equal volume of compound free broth. The first vessel contains twice the volume of broth with the starting concentration of test compound. One half of the broth from the first vessel is transferred to the second vessel- After being mixed, one half the resulting volume is removed from the second vessel and transferred to the third vessel. The entire cycle is repeated sufficiently to give a series of concentrations amounting to 500, 250, 125, 63, 31, 16, 8, and 4, 2, 1, 0.5, 0.25 ppm respectively.
(§3) Each vessel is then inoculated with a cell suspension of the appropriate test organism. Bacteria are grown in broth, fungi on agar slants for a time and at a temperature appropriate to the species being tested, and algae are a mixture of green algae and blue-green bacteria grown in a nutrient media. At the end of the growth period, in the case of bacteria, the broth is vortexed to disperse the cells.
(§4) In the case of fungi, the spores are harvested by pipetting water onto the slant and dislodging the spores with a sterile loop. The cell/spore suspension is standardized by controlling incubation time, temperature, and the volume of the diluent. The suspension is then used to inoculate the vessels containing the broth compound.
(§5) The vessels are then incubated at the appropriate temperature. After the incubation, the vessels are examined for growth/no growth. The minimum inhibitory concentration (MIC) is defined as the lowest concentration of compound that results in complete inhibition of growth of the test organism.
1. Pseudomonas aeruginosa

Escherichia coli = format: cell-based, Escherichia coli (ATCC 11229); conditions: Ecol
Excerpt: as §1, §2, §3, §4, §5

Staphylococcus aureus = format: cell-based, Staphylococcus aureus (ATCC 6538); conditions: Saur
Excerpt: as §1, §2, §3, §4, §5
2. Staphylococcus aureus

Aspergillus niger = format: cell-based, Aspergillus niger (ATCC 6275); conditions: Anig, TSB media
Excerpt: as §1, §2, §3, §4, §5
4. Aspergillus niger 6275 Anig

[1] = Pseudomonas aeruginosa, Table 2, M9G media, read-out: MIC
[2] = Pseudomonas aeruginosa, Table 2, TSB media, read-out: MIC
[3] = Escherichia coli, Table 2, M9G media, read-out: MIC
[4] = Escherichia coli, Table 2, TSB media, read-out: MIC
[5] = Staphylococcus aureus, Table 2, M9G media, read-out: MIC
[6] = Staphylococcus aureus, Table 2, TSB media, read-out: MIC
[7] = Aspergillus niger, Table 2, read-out: MIC

| Structure (SMILES) | MIC (Pseudomonas aeruginosa; [1]) [µg/mL] | MIC (Pseudomonas aeruginosa; [2]) [µg/mL] | MIC (Escherichia coli; [4]) [µg/mL] | MIC (Staphylococcus aureus; [5]) [µg/mL] | MIC (Staphylococcus aureus; [6]) [µg/mL] | MIC (Aspergillus niger; [7]) [µg/mL] | MIC (Pseudomonas aeruginosa; Table 2, TSB media) [ppm] | MIC (Escherichia coli; Table 2, M9G media) [ppm] | MIC (Escherichia coli; Table 2, TSB media) [ppm] | MIC (Staphylococcus aureus; Table 2, TSB media) [ppm] | also measured |
| --- | --- | --- | --- | --- | --- | --- | --- | --- | --- | --- | --- |
| CCCCCCCC[N+]1(CC#CI)CCCC1 [Compound 12, 1-octyl-1-(3-iodopropargyl)-pyrrolidinium 4-methylbenzenesulfonate] | 500 | > 500 | 63 | 2 | 16 | 16 |  |  |  |  | MIC (Escherichia coli; [3]): 32 µg/mL |
| CCCCCCCCCCCC[N+]1(CC#CI)CCCC1 [Compound 13, 1-dodecyl-1-(3-iodopropargyl)-pyrrolidinium 4-methylbenzenesulfonate] | 32 |  |  |  |  |  | 250 | 32 | 32 | 16 | MIC (Staphylococcus aureus; Table 2, M9G media): 1 ppm; MIC (Aspergillus niger; Table 2): 16 ppm |
| CCCCCC[N+]1(CC#CI)CCCC1 [Compound 14, 1-hexyl-1-(3-iodopropargyl)-pyrrolidinium 4-methylbenzenesulfonate] | 500 | 500 | 125 | 16 | 16 | 250 |  |  |  |  | MIC (Escherichia coli; [3]): 250 µg/mL |
| CCCCCCCCCCC[N+]1(CC#CI)CCCC1 [Compound 15, 1-undecyl-1-(3-iodopropargyl)-pyrrolidinium 4-methylbenzenesulfonate] | 32 | 32 | 2 | 0.25 | 0.25 | 16 |  |  |  |  | MIC (Escherichia coli; [3]): 1 µg/mL |
| CCCCCCCCCCCCCCCCCC[N+]1(CC#CI)CCCC1 [Compound 16, t-octadecyl-1-(3-iodopropargyl)-pyrrolidinium 4-methylbenzenesulfonate] | 500 | 500 | 63 | 1 | 1 | 32 |  |  |  |  | MIC (Escherichia coli; [3]): 16 µg/mL |
| C[N+]1(CC#CI)CCCCC1 [Compound 17, 1-Methyl-1-(3-Iodopropargyl)-Piperidinium 4-Methylbenzenesulfonate] | 250 | 125 | 250 | 32 | 32 | 125 |  |  |  |  | MIC (Pseudomonas aeruginosa; Pseudomonas aeruginosa, Table 3 comparison, M9G media, read-out: MIC): 250 µg/mL; MIC (Pseudomonas aeruginosa; Pseudomonas aeruginosa, Table 3 comparison, TSB media, read-out: MIC): 125 µg/mL; MIC (Escherichia coli; Escherichia coli, Table 3 comparison, TSB media, read-out: MIC): 250 µg/mL; MIC (Staphylococcus aureus; Staphylococcus aureus, Table 3 comparison, M9G media, read-out: MIC): 32 µg/mL; MIC (Staphylococcus aureus; Staphylococcus aureus, Table 3 comparison, TSB media, read-out: MIC): 32 µg/mL; MIC (Aspergillus niger; Aspergillus niger, Table 3 comparison, read-out: MIC): 125 µg/mL |
| OCC[N+]1(CC#CI)CCCCC1 [Compound 18, 1-(2-hydroxyethyl)-1-(3-iodopropargyl)-piperidinium 4-methylbenzenesulfonate] | 250 | 125 | 250 | 16 | 32 | 250 |  |  |  |  |  |
| OCCCCCCCCCCC[N+]1(CC#CI)CCCCC1 [Compound 19, 1-(11-hydroxyundecyl)-1-(3-iodopropargyl)-piperidinium 4-methylbenzenesulfonate] | 250 | 250 | 32 | 2 | 16 | 32 |  |  |  |  |  |
| OCCCCCCCCCCCC[N+]1(CC#CI)CCCCC1 [Compound 20, 1-(12-hydroxydodecyl)-1-(3-iodopropargyl)-piperidinium 4-methylbenzenesulfonate] | > 250 | > 250 | 250 | 8 | 63 | 125 |  |  |  |  |  |
| OCCCCCCCCC[N+]1(CC#CI)CCCCC1 [Compound 21, 1-(9-hydroxynonyl)-1-(3-iodopropargyl)-piperidinium 4-methylbenzenesulfonate] | > 250 | > 250 | > 250 | > 250 | > 250 | 63 |  |  |  |  |  |
| CCOC(=O)CC[N+]1(CC#CI)CCCCC1 [Compound 22, 1-(2-ethoxycarbonylethyl)-1-(3-iodopropargyl)-piperidinium 4-methylbenzenesulfonate] | > 250 | > 250 | > 250 | > 250 | > 250 | 16 |  |  |  |  |  |
| OCCCCCCCC[N+]1(CC#CI)CCCCC1 [Compound 23, 1-(8-hydroxyoctyl)-1-(3-iodopropargyl)-1-piperidinium 4-methylbenzenesulfonate] | > 500 | > 500 | > 500 | 63 | 250 | > 500 |  |  |  |  |  |
| OCCCCCCC[N+]1(CC#CI)CCCCC1 [Compound 24, 1-(7-hydroxyheptyl)-1-(3-iodopropargyl)-piperidinium-4methylbenzenesulfonate] | > 500 | > 500 | > 500 | 63 | 500 | > 500 |  |  |  |  |  |
| CCCCCCCCCCCCCCCC[N+]1(CC#CI)CCCCC1 [Compound 26, 1-(hexadecyl)-1-(3-iodopropargyl)-piperidinium 4-methylbenzenesulfonate] |  |  |  |  |  | 16 | 16 | 4 | 4 | 0.25 | MIC (Pseudomonas aeruginosa; Table 2, M9G media): 4 ppm; MIC (Staphylococcus aureus; Table 2, M9G media): 0.25 ppm |
| OCCCCCCCCCCCC[N+]1(CC#CI)CCCCCC1 [Compound 27, 1-(12-hydroxydodecyl)-1-(3-iodopropargyl)-hexamethyleneiminium 4-methylbenzenesulfonate] | > 250 | > 250 | 250 | 16 | 32 | 32 |  |  |  |  |  |
| CCCCCCCCCCCCCC[N+]1(CC#CI)CCOCC1 [Compound 28, 4-tetradecyl-4-(3-iodopropargyl)-morpholinium 4-methylbenzenesulfonate] |  |  |  | 0.25 |  |  | 4 | 1 | 2 | 0.25 | MIC (Pseudomonas aeruginosa; Table 2, M9G media): 4 ppm; MIC (Aspergillus niger; Table 2): 8 ppm |
| C[N+]1(CC#CI)CCOCC1 [Compound 29, 4-methyl-4-(3-iodopropargl)-morpholinium 4-methylbenzenesulfonate] | 500 | 500 | 125 | 500 | 500 | 500 |  |  |  |  | MIC (Escherichia coli; [3]): 250 µg/mL |
| CCCCCCCCCCCC[N+]1(CC#CI)CCCC1 [Compound 30, 1-dodecyl-1-(3-iodopropargyl)-pyrrolidinium benzenesulfonate] |  |  |  |  |  |  | 63 | 2 | 16 | 1 | MIC (Pseudomonas aeruginosa; Table 2, M9G media): 63 ppm; MIC (Staphylococcus aureus; Table 2, M9G media): 1 ppm; MIC (Aspergillus niger; Table 2): 1 ppm |
| CCCCCCCCCCCCC[N+]1(CC#CI)CCCC1 [Compound 31, 1-tridecyl-1-(3-iodopropargyl)-pyrrolidinium benzenesulfonate] |  |  |  |  |  |  | 32 | 1 | 16 | < 0.25 | MIC (Pseudomonas aeruginosa; Table 2, M9G media): 32 ppm; MIC (Staphylococcus aureus; Table 2, M9G media): 0.5 ppm; MIC (Aspergillus niger; Table 2): 1 ppm |
| CCCCCCCCCCCCCCCC[N+]1(CC#CI)CCCC1 [Compound 32, 1-hexadecyl-1-(3-iodopropargy)-pyrrolidinium benzenesulfonate] |  |  |  |  |  |  | 125 | 4 | 16 | < 0.25 | MIC (Pseudomonas aeruginosa; Table 2, M9G media): 32 ppm; MIC (Staphylococcus aureus; Table 2, M9G media): < 0.25 ppm; MIC (Aspergillus niger; Table 2): < 0.25 ppm |
| CCCCCCCCCCCCCCC[N+]1(CC#CI)CCCC1 [Compound 33, 1-pentadecyl-1-(3-iodopropargyl)-pyrrolidinium benzenesulfonate] |  |  |  |  |  |  | 32 | 1 | 2 | < 0.25 | MIC (Pseudomonas aeruginosa; Table 2, M9G media): 8 ppm; MIC (Staphylococcus aureus; Table 2, M9G media): < 0.25 ppm; MIC (Aspergillus niger; Table 2): < 0.25 ppm |
